Patent US12441703B2, “Carboxamides as modulators of sodium channels” (VERTEX PHARMACEUTICALS INCORPORATED, priority 2019, dated 2025)

Biological target: human NaV 1.8 (Homo sapiens, UniProt Q9Y5Y9)
Assay: E-VIPR assay for detecting and measuring NaV inhibition properties
Assay type: cell-based
Settings: E-VIPR assay conducted in the presence of human serum; HEK cells expressing truncated human NaV 1.8; read-out: IC50
Summary of the method: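 HEK cells with truncated human NaV1.8 plus KIR2.1 BacMam, hexyl dye loaded 20 min, compound 30 min at room temperature, 11-point 3-fold series […], 0.625% DMSO, with or without human serum. E-VIPR biphasic stimulation at 10 Hz for 10 s; membrane-potential response read as normalized coumarin/oxonol ratio.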

human NaV 1.8, sequence (Q9Y5Y9 whole entry, looked up): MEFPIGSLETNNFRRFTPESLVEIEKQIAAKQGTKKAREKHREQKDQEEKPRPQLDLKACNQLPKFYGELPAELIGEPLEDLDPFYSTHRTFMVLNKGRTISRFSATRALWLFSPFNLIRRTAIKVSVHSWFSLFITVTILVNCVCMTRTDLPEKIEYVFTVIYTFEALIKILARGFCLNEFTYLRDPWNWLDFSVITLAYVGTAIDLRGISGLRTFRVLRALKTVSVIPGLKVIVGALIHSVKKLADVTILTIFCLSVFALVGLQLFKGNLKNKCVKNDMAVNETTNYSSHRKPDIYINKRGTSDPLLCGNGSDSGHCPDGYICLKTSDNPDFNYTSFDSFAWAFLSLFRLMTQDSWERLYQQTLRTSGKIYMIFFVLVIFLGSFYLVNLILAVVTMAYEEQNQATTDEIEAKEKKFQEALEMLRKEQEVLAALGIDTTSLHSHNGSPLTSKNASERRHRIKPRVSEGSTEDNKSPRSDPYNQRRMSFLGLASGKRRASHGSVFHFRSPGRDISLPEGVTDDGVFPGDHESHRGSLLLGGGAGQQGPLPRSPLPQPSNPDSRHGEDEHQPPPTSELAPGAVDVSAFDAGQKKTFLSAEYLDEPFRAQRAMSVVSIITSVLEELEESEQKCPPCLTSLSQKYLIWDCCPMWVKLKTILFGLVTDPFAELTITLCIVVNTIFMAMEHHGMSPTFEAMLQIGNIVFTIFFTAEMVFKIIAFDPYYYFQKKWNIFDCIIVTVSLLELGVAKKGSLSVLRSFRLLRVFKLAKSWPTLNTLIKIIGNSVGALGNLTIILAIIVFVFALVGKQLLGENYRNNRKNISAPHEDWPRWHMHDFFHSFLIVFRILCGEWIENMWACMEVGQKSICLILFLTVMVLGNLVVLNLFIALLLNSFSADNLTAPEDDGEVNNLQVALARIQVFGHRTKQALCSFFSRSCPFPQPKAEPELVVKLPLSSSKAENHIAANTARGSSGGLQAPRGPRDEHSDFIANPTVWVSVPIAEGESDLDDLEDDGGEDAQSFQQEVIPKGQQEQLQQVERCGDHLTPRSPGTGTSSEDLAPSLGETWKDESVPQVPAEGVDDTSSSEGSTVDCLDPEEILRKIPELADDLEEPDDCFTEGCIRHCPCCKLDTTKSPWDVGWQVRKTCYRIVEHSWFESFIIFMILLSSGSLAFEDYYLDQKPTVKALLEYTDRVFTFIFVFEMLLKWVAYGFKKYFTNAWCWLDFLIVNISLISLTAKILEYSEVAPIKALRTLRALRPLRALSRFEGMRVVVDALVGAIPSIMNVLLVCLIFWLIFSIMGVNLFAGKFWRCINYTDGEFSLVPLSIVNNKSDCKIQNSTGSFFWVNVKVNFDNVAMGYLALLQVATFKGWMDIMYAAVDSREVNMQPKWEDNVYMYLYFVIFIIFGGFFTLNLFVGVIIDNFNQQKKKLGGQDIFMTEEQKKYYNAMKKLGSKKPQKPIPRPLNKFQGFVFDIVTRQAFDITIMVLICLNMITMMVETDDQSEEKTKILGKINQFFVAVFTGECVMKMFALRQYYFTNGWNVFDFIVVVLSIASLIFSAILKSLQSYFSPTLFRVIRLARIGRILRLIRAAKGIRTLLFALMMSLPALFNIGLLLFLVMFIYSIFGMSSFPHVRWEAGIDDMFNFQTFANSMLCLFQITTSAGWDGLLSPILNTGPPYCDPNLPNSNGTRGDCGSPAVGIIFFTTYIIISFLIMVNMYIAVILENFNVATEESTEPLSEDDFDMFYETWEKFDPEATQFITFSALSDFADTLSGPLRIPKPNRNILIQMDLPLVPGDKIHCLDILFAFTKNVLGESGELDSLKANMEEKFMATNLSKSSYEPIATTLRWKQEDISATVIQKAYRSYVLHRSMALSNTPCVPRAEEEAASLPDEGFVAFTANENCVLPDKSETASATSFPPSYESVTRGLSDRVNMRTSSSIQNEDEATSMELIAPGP

SMILES | IC50
COc1cc(OC(F)(F)F)ccc1Oc1cc(-c2ccc(F)cc2)ccc1C(=O)Nc1ccnc(C(N)=O)c1 [Compound 156, 4-[[4-(4-fluorophenyl)-2-[2-methoxy-4-(trifluoromethoxy)phenoxy]benzoyl]amino]pyridine-2-carboxamide] | 730 nM
COc1cc(OC(F)(F)F)ccc1Oc1cc(C(F)(F)F)cc(C)c1C(=O)Nc1ccc(C(N)=O)nc1 [Compound 187, 5-[[2-[2-methoxy-4-(trifluoromethoxy)phenoxy]-6-methyl-4-(trifluoromethyl)benzoyl]amino]pyridine-2-carboxamide] | 490 nM
COc1c(F)cccc1Oc1ccc(C(F)(F)F)cc1C(=O)Nc1ccnc(C(N)=O)c1 [Compound 12, 4-[[2-(3-fluoro-2-methoxy-phenoxy)-5-(trifluoromethyl)benzoyl]amino]pyridine-2-carboxamide] | 2100 nM
Cc1cc(Cl)ccc1Oc1ccc(C(F)(F)F)c(C)c1C(=O)Nc1ccc(C(N)=O)nc1 [Compound 233, 5-[[6-(4-chloro-2-methyl-phenoxy)-2-methyl-3-(trifluoromethyl)benzoyl]amino]pyridine-2-carboxamide] | 1400 nM
COc1c(C(F)(F)F)ccc(Oc2ccc(F)c(F)c2)c1C(=O)Nc1ccnc(C(N)=O)c1 [Compound 55, 4-[[6-(3,4-difluorophenoxy)-2-methoxy-3-(trifluoromethyl)benzoyl]amino]pyridine-2-carboxamide] | 420 nM
CCOc1ccc(Oc2ccc(C(F)(F)F)c(F)c2C(=O)Nc2ccnc(C(N)=O)c2)cc1 [Compound 23, 4-[[6-(4-ethoxyphenoxy)-2-fluoro-3-(trifluoromethyl)benzoyl]amino]pyridine-2-carboxamide] | 150 nM
COc1c(Oc2ccc(C(F)(F)F)c(C)c2C(=O)Nc2cc(C(N)=O)ncc2C)ccc(F)c1F [Compound 180, 4-[[6-(3,4-difluoro-2-methoxy-phenoxy)-2-methyl-3-(trifluoromethyl)benzoyl]amino]-5-methyl-pyridine-2-carboxamide] | 510 nM
COc1c(C(F)(F)F)ccc(Oc2ccc(F)cc2F)c1C(=O)Nc1ccnc(C(N)=O)c1 [Compound 62, 4-[[6-(2,4-difluorophenoxy)-2-methoxy-3-(trifluoromethyl)benzoyl]amino]pyridine-2-carboxamide] | 440 nM
CC(F)(F)c1cc(F)ccc1Oc1cc(C(F)(F)F)ccc1C(=O)Nc1ccnc(C(N)=O)c1 [Compound 112, 4-[[2-[2-(1,1-difluoroethyl)-4-fluoro-phenoxy]-4-(trifluoromethyl)benzoyl]amino]pyridine-2-carboxamide] | > 3000 nM
NC(=O)c1cc(NC(=O)c2c(Oc3ccc(F)c(Cl)c3)cccc2C(F)(F)F)ccn1 [Compound 80, 4-[[2-(3-chloro-4-fluoro-phenoxy)-6-(trifluoromethyl)benzoyl]amino]pyridine-2-carboxamide] | > 3000 nM
COc1c(Oc2ccc(C(F)(F)F)c(C)c2C(=O)Nc2ccc(C(N)=O)nc2)ccc(F)c1F [Compound 179, 5-[[6-(3,4-difluoro-2-methoxy-phenoxy)-2-methyl-3-(trifluoromethyl)benzoyl]amino]pyridine-2-carboxamide] | 2000 nM
COc1cc(OC(F)(F)F)ccc1Oc1cc(C(F)(F)F)c(C)nc1C(=O)Nc1ccnc(C(N)=O)c1 [Compound 247, N-(2-carbamoyl-4-pyridyl)-3-[2-methoxy-4-(trifluoromethoxy)phenoxy]-6-methyl-5-(trifluoromethyl)pyridine-2-carboxamide] | 190 nM
CCOc1c(C(F)(F)F)ccc(Oc2ccc(OC(F)(F)F)cc2OC)c1C(=O)Nc1ccnc(C(N)=O)c1 [Compound 83, 4-[[2-ethoxy-6-[2-methoxy-4-(trifluoromethoxy)phenoxy]-3-(trifluoromethyl)benzoyl]amino]pyridine-2-carboxamide] | 160 nM
COc1cc(F)ccc1-c1ccc(C(F)(F)F)cc1C(=O)Nc1ccc(F)c(C(N)=O)c1 [Compound 253, N-(3-carbamoyl-4-fluoro-phenyl)-2-(4-fluoro-2-methoxy-phenyl)-5-(trifluoromethyl)benzamide] | > 3000 nM

Now those with a lower IC50, led by results:

IC50 | SMILES
130 nM | [2H]C([2H])([2H])Oc1cc(OC(F)(F)F)ccc1Oc1cc(C2CCOC2)cc(F)c1C(=O)Nc1ccnc(C(N)=O)c1 (stereo not shown) [Compound 1018, 4-[[2-fluoro-4-tetrahydrofuran-3-yl-6-[2-(trideuteriomethoxy)-4-(trifluoromethoxy)phenoxy]benzoyl]amino]pyridine-2-carboxamide]
110 nM | COc1cc(OC(F)(F)F)ccc1Oc1cc(C(F)(F)F)cc(C)c1C(=O)Nc1cc(C(N)=O)ncc1C [Compound 186, 4-[[2-[2-methoxy-4-(trifluoromethoxy)phenoxy]-6-methyl-4-(trifluoromethyl)benzoyl]amino]-5-methyl-pyridine-2-carboxamide]
54.5 nM | Cc1c(Oc2ccc(C(F)(F)F)c(F)c2C(=O)Nc2ccc(C(N)=O)nc2)ccc(OC(F)(F)F)c1F [Compound 292, 5-[[2-Fluoro-6-[3-Fluoro-2-Methyl-4-(Trifluoromethoxy)Phenoxy]-3-(Trifluoromethyl)Benzoyl]Amino]Pyridine-2-Carboxamide]
50 nM | COc1cc(OC(F)(F)F)ccc1Oc1cc(F)c(F)c(F)c1C(=O)Nc1cnc(C(N)=O)nc1 [Compound 262, 5-[[2,3,4-trifluoro-6-[2-methoxy-4-(trifluoromethoxy)phenoxy]benzoyl]amino]pyrimidine-2-carboxamide]
20.5 nM | COc1c(Oc2cnc(C(F)(F)F)c(C)c2C(=O)Nc2ccc(C(N)=O)nc2)ccc(OC(F)(F)F)c1F [Compound 337, N-(6-carbamoyl-3-pyridyl)-5-[3-fluoro-2-methoxy-4-(trifluoromethoxy)phenoxy]-3-methyl-2-(trifluoromethyl)pyridine-4-carboxamide]
20 nM | COc1c(Oc2ccc(C(F)(F)F)c(C)c2C(=O)Nc2ccnc(C(N)=O)c2)ccc(F)c1F [Compound 120, 4-[[6-(3,4-difluoro-2-methoxy-phenoxy)-2-methyl-3-(trifluoromethyl)benzoyl]amino]pyridine-2-carboxamide]
19 nM | [2H]C([2H])([2H])Oc1cc(OC(F)(F)F)ccc1Oc1cc(C2=CCCCC2)cc(F)c1C(=O)Nc1ccnc(C(N)=O)c1 [Compound 1001, 4-[[4-(cyclohexen-1-yl)-2-fluoro-6-[2-(trideuteriomethoxy)-4-(trifluoromethoxy)phenoxy]benzoyl]amino]pyridine-2-carboxamide]
17 nM | COc1cc(OC(F)(F)F)ccc1Oc1ccc(C(F)F)c(C)c1C(=O)Nc1ccnc(C(N)=O)c1 [Compound 244, 4-[[3-(difluoromethyl)-6-[2-methoxy-4-(trifluoromethoxy)phenoxy]-2-methyl-benzoyl]amino]pyridine-2-carboxamide]
13 nM | COc1cc(OC(F)(F)F)ccc1Oc1cc(C2=CCC(C(F)(F)F)CC2)cc(F)c1C(=O)Nc1ccnc(C(N)=O)c1 (stereo not shown) [Compound 1013, 4-[[2-fluoro-6-[2-methoxy-4-(trifluoromethoxy)phenoxy]-4-[4-(trifluoromethyl)cyclohexen-1-yl]benzoyl]amino]pyridine-2-carboxamide]
13 nM | [2H]C([2H])([2H])Oc1cc(OC(F)(F)F)ccc1Oc1cc(C2CCCC2)cc(F)c1C(=O)Nc1ccnc(C(N)=O)c1 [Compound 96, 4-[[4-Cyclopentyl-2-Fluoro-6-[2-(Trideuteriomethoxy)-4-(Trifluoromethoxy)Phenoxy]Benzoyl]Amino]Pyridine-2-Carboxamide]
9.8 nM | NC(=O)c1cc(NC(=O)c2c(Oc3ccc(OC(F)(F)F)c(F)c3Cl)ccc(C(F)(F)F)c2F)ccn1 [Compound 298, 4-[[6-[2-Chloro-3-Fluoro-4-(Trifluoromethoxy)Phenoxy]-2-Fluoro-3-(Trifluoromethyl)Benzoyl]Amino]Pyridine-2-Carboxamide]
8.3 nM | COc1c(Oc2cc3c(c(C)c2C(=O)Nc2ccnc(C(N)=O)c2)OC(F)(F)O3)ccc(OC(F)(F)F)c1F [Compound 327, 4-[[2,2-difluoro-6-[3-fluoro-2-methoxy-4-(trifluoromethoxy)phenoxy]-4-methyl-1,3-benzodioxole-5-carbonyl]amino]pyridine-2-carboxamide]
8 nM | COc1cc(OC(F)(F)F)ccc1Oc1ccc(Cl)c(C)c1C(=O)Nc1ccnc(C(N)=O)c1 [Compound 261, 4-[[3-chloro-6-[2-methoxy-4-(trifluoromethoxy)phenoxy]-2-methyl-benzoyl]amino]pyridine-2-carboxamide]
6 nM | COc1cc(OC(F)(F)F)ccc1Oc1cc2c(c(C)c1C(=O)Nc1ccnc(C(N)=O)c1)OC(F)(F)O2 [Compound 202, 4-[[2,2-difluoro-6-[2-methoxy-4-(trifluoromethoxy)phenoxy]-4-methyl-1,3-benzodioxole-5-carbonyl]amino]pyridine-2-carboxamide]
6 nM | COc1c(Oc2cc3c(c(F)c2C(=O)Nc2ccnc(C(N)=O)c2)OCC(C)(C)O3)ccc(OC(F)(F)F)c1F [Compound 1040, 4-(5-fluoro-7-(3-fluoro-2-methoxy-4-(trifluoromethoxy)phenoxy)-2,2-dimethyl-2,3-dihydrobenzo[b][1,4]dioxine-6-carboxamido)picolinamide]
4 nM | COc1cc(OC(F)(F)F)ccc1Oc1cc(C(F)(F)F)c(OC)c(F)c1C(=O)Nc1ccnc(C(N)=O)c1 [Compound 284, 4-[[2-Fluoro-3-Methoxy-6-[2-Methoxy-4-(Trifluoromethoxy)Phenoxy]-4-(Trifluoromethyl)Benzoyl]Amino]Pyridine-2-Carboxamide]
3 nM | COc1c(Oc2ccc(C(F)(F)F)c(C)c2C(=O)Nc2ccnc(C(N)=O)c2)ccc(OC(F)(F)F)c1F [Compound 147, 4-[[6-[3-fluoro-2-methoxy-4-(trifluoromethoxy)phenoxy]-2-methyl-3-(trifluoromethyl)benzoyl]amino]pyridine-2-carboxamide]
